# Experimental data from US10525064B2, “Anticancer adjuvant containing panaxadiol ginsenocide compound” (priority 2015, dated 2020).
# Experiments:
# MCF-7 cells [1] = assay: Anticancer activity with PARP inhibitor or caspase-9 inhibitor pretreatment; format: cell-based, human; conditions: FIG. 3C; for anticancer activity with PARP activity inhibitor, ginsenoside and doxorubicin treated simultaneously: 3-AB pretreatment, ginsenoside 10 μg/mL, doxorubicin 5 μg/mL
# Experimental: Specifically, a medium containing C-K or PPD (10 μg/mL) was added to MCF-7 cells pretreated with Z-LEHD-FMK (i.e., an inhibitor of caspase-9) or 3-AB (i.e., an inhibitor of PARP) and cultured for 12 hours. The medium was then replaced with a medium containing doxorubicin (0 μg/mL or 5 μg/mL) and cultured for 24 hours. The same western blot analysis was performed using the cultured cells (FIG. 3C).
# [2] = test system: cytochrome-C release in MCF-7 cells; assay: Cytochrome-C release from mitochondria, immunofluorescent staining; format: cell-based, human; conditions: for cells in which cytochrome-C was released, of the entire cells: 6 hours after the treatment, FIG. 4B; for level of cytochrome-C release compared to doxorubicin treatment alone: then doxorubicin 5 μg/mL 4 hours
# Experimental: MCF-7 cells were charged with a medium containing C-K or PPD (10 μg/mL) and cultured for 24 hours, and the medium was replaced with a medium containing doxorubicin (5 μg/mL) and cultured for 0 hours or 4 hours. The cells, upon completion of culture, were fixed with 4% paraformaldehyde, perforated by adding 0.5% Triton X-100 solution thereto, and the cells were immunostained with anti-cytochrome-C antibody for 30 minutes. Upon completion of the staining, the cells were washed with PBS, reacted with fluorescently-labeled secondary antibody for 30 minutes, washed with PBS, and then photographed using a confocal microscope to measure the levels of fluorescence developed (FIG. 4A).
# In this regard, the present inventors have attempted to confirm whether the level of cytochrome-C release can be changed by the treatment time of doxorubicin. That is, the immunostaining was performed in the same manner as described above, except that MCF-7 cells were charged with a medium containing C-K or PPD (10 μg/mL) and cultured for 24 hours, and the medium was replaced with a medium containing doxorubicin (5 μg/mL), and the cells which were cultured for 0 hours, 0.5 hours, 1 hour, 2 hours, 4 hours, or 6 hours were used. Then, the number of cells in which cytochrome-C was released from mitochondria to cytoplasm was measured (FIG. 4B). In particular, an experimental group not treated with ginsenoside was used as a control.
# [3] = test system: phosphorylated JNK, cleaved-PARP, cleaved-caspase-9 in MCF-7 cells; assay: Western blot of apoptosis-related proteins; format: cell-based, human; conditions: for level of cleaved-caspase-9 / levels of phosphorylated JNK and cleaved-PARP: ginsenoside 10 μg/mL with doxorubicin 5 μg/mL
# Experimental: MCF-7 cells were charged with a medium containing C-K or PPD (10 μg/mL) and cultured for 12 hours, and the medium was replaced with a medium containing C-K or PPD (10 μg/mL) and doxorubicin (0 μg/mL or 5 μg/mL) and cultured for 24 hours. The cells, upon completion of culture, were disrupted and western blot analyses were performed treated with respect to anti-phosphorylated JNK antibody, anti-PARP antibody, anti-cleaved-PARP antibody, and anti-caspase-9 antibody or anti-cleaved-caspase-9 antibody (FIG. 3A).
# Accordingly, MCF-7 cells were charged with a medium containing PPD (10 μg/mL) and cultured for 12 hours, and the medium was replaced with a medium containing PPD (10 μg/mL) and doxorubicin (5 μg/mL) and cultured for 0 hours, 0.5 hours, 1 hour, 2 hours, 4 hours, or 6 hours. The same western blot analysis was performed using the cultured cells (FIG. 3B). In particular, as a comparative group, cells cultured in a medium containing doxorubicin alone were used instead of the medium containing PPD and doxorubicin.
# MCF-7 cells [4] = assay: WST-1 viability assay in siRNA-treated cells with doxorubicin or tamoxifen; format: cell-based, human; conditions: 5 μM doxorubicin or 20 μM tamoxifen, 24 hours, FIG. 6B; for change of anticancer activity where mitochondrial fission was induced by Mfn1 or Mfn2 siRNA: Mfn2 versus Mfn1 inhibition; for anticancer activity (viability of MCF-7 cells): siRNA-introduced cells
# Experimental: Meanwhile, each of the synthesized siRNAs was introduced into MCF-7 cells and cultured for 12 hours. The cells were cultured further for 48 hours in a normal medium containing no siRNA, treated with 5 μM doxorubicin or 20 μM tamoxifen, and cultured for 24 hours. Upon completion of culture, the viability of the MCF-7 cells was compared by WST-1 assay (FIG. 6B). In particular, an experimental group not treated with doxorubicin or tamoxifen was used as a control.
# MCF-7 cells [5] = assay: WST-1 viability assay, ginsenoside pretreatment followed by doxorubicin or tamoxifen; format: cell-based; conditions: for effect on anticancer activity of doxorubicin: then doxorubicin 5 μg/mL 24 hours, FIG. 2A; for anticancer activity of doxorubicin with ginsenoside compared to doxorubicin alone: ginsenoside 10 μg/mL, doxorubicin 0-50 μg/mL
# Experimental: Specifically, each of the PPD-type ginsenoside compounds (F2, Rh2, C-K, or PPD) at a concentration of 10 μg/mL was added to MCF-7 cells, cultured for 12 hours, and treated with 20 μM tamoxifen or doxorubicin (5 μg/mL) and cultured for 24 hours. Upon completion of the cultivation, the viability of MCF-7 cells was compared by WST-1 assay (FIG. 2A).
# In this regard, to determine whether the C-K or PPD affects the treatment concentration of doxorubicin, the PPD-type ginsenoside compound (C-K or PPD) was added to the MCF-7 cells at a concentration of 10 μg/mL and cultured for 12 hours. Then, the MCF-7 cells were treated with doxorubicin at various concentrations (0 μg/mL, 0.1 μg/mL, 0.5 μg/mL, 1 μg/mL, 2 μg/mL, 5 μg/mL, 10 μg/mL, and 50 μg/mL) and cultured for 24 hours. Upon completion of the culture, the viability of the MCF-7 cells and the LC50 values calculated therefrom were compared by WST-1 assay (FIG. 2B).
# [6] = test system: Drp1, Fis1, OPA-3, Mfn1, Mfn2, OPA1 in MCF-7 cells; assay: Western blot of mitochondrial fission and fusion proteins; format: cell-based, human; conditions: ginsenoside 10 μg/mL, 24 hours, FIG. 5B
# Experimental: Accordingly, western blot analysis was performed with respect to each of the cultured cells and the expression levels of the proteins (Drp1, Fis1, and OPA-3) involved in mitochondrial fission and those of the proteins (Mfn1, Mfn2, and OPA1) involved in mitochondrial fusion were compared (FIG. 5B).
# MCF-7 cells [7] = assay: WST-1 viability assay, PPD-type ginsenoside compounds alone; format: cell-based, human; conditions: 0-200 μg/mL, 24 hours, FIG. 1
# Experimental: First, MCF-7 cells, a human breast cancer cell line, were inoculated into DMEM medium containing 10% FBS and 1% penicillin/streptomycin, cultured in conditions of 5% CO2 and 37° C. When the cultured MCF-7 cells were saturated the cells were sub-cultured at intervals of 3 days to 5 days.
# Then, the cultured MCF-7 cells were treated with various concentrations (0 μg/mL, 5 μg/mL, 10 μg/mL, 20 μg/mL, 50 μg/mL, 100 μg/mL, or 200 μg/mL) of PPD-type ginsenoside compounds (F2, Rh2, C-K, or PPD) for 24 hours, and the viability of these cells was measured by performing WST-1 assay on the MCF-7 cells (FIG. 1). In particular, WST-1 assay was performed by inoculating each of the MCF-7 cells in a medium containing 10% EZ-Cytox and reacting at 37° C. for 1.5 hours. The level of water-soluble formazan dye produced by the viable cells was measured by absorbance at 450 nm and the results were analyzed to calculate the cell viability of the cells.
# [8] = test system: mitochondria of MCF-7 cells; assay: Mitochondria immunostaining with anti-Tom-20 antibody; format: cell-based, human; conditions: ginsenoside 10 μg/mL, 24 hours, FIG. 5A
# Experimental: That is, MCF-7 cells were charged with a medium containing C-K or PPD (10 μg/mL) and cultured for 24 hours. The cells, upon completion of culture, were fixed with 4% paraformaldehyde, perforated by adding 0.5% Triton X-100 solution thereto, and mitochondria of the cells were immunostained with anti-Tom-20 antibody. Upon completion of staining, the cells were washed with PBS and then photographed using a confocal microscope to measure the levels of fluorescence developed (FIG. 5A).
# [9] = ginsenoside 10 μg/mL 24 hours, FIG. 4A
# [10] = ginsenoside 10 μg/mL 24 hours, then doxorubicin 5 μg/mL
Compound,change of anticancer activity where mitochondrial fission was induced by Mfn1 or Mfn2 siRNA (MCF-7 cells [4]),anticancer activity (viability of MCF-7 cells) (MCF-7 cells [4]),"anticancer activity with PARP activity inhibitor, ginsenoside and doxorubicin treated simultaneously (MCF-7 cells [1])","level of cytochrome-C release compared to doxorubicin treatment alone [2, 9]","cells in which cytochrome-C was released, of the entire cells [2, 10] [%]","level of cleaved-caspase-9 ([3]; 24 hours, FIG. 3A)","levels of phosphorylated JNK and cleaved-PARP ([3]; 24 hours, FIG. 3A)",expression level of Mfn2 (mitochondrial fusion protein) [6],expression level of OPA-3 (mitochondrial fission protein) [6],anticancer activity (viability of MCF-7 cells) (MCF-7 cells [7]),mitochondrial damage [8],effect on anticancer activity of doxorubicin (MCF-7 cells [5]; ginsenoside 10 μg/mL 12 hours),anticancer activity of doxorubicin with ginsenoside compared to doxorubicin alone (MCF-7 cells [5]; FIG. 2B),also measured
"COc1cccc2c1C(=O)c1c(O)c3c(c(O)c1C2=O)C[C@@](O)(C(=O)CO)C[C@@H]3O[C@H]1C[C@H](N)[C@H](O)[C@H](C)O1 [doxorubicin, reference compound]",further increased,significantly high level of anticancer activity,–,–,–,–,–,–,–,–,–,–,–,"anticancer effect of doxorubicin with PARP or caspase-9 activity inhibitor (MCF-7 cells [1]; Z-LEHD-FMK or 3-AB pretreatment, doxorubicin 5 μg/mL 24 hours): inhibited; cells in which cytochrome-C was released, of the entire cells ([2]; doxorubicin 5 μg/mL alone (control)): 7%; level of cytochrome-C release compared to no doxorubicin treatment ([2]; doxorubicin 5 μg/mL, 4 hours, FIG. 4A): increased the level of cytochrome-C release; levels of phosphorylated JNK, cleaved-PARP, and cleaved-caspase-9 ([3]; doxorubicin 5 μg/mL, 24 hours, FIG. 3A): increased; CC50 (MCF-7 cells [5]; Homo sapiens, MCF7, 24 h, read-out: LC50 of doxorubicin): ~10 µg/mL"
"CC(C)=CCC[C@](C)(O[C@@H]1OC(CO)[C@@H](O)C(O)C1O)C1CC[C@]2(C)C1[C@H](O)CC1[C@@]3(C)CCC(O)C(C)(C)C3CC[C@]12C (stereo partly shown) [C-K, compound-K]",–,–,slightly recovered,increased the level of cytochrome-C release,20,significantly increased,not affected,decreased,increase,relatively excellent anticancer activity,damage was observed,could enhance the anticancer activity of doxorubicin,increased,–
"CC(C)=CCC[C@](C)(O[C@@H]1O[C@H](CO)[C@@H](O)[C@H](O)[C@H]1O)[C@H]1CC[C@]2(C)[C@@H]1[C@H](O)C[C@@H]1[C@@]3(C)CC[C@H](O[C@@H]4O[C@H](CO)[C@@H](O)[C@H](O)[C@H]4O)C(C)(C)[C@@H]3CC[C@]12C [F2, reference compound]",–,–,–,–,–,–,–,–,–,–,–,no particular effect on doxorubicin,–,"LC50 of doxorubicin treated simultaneously with ginsenoside (MCF-7 cells [5]; ginsenoside 10 μg/mL 12 hours, then doxorubicin 0-50 μg/mL 24 hours, FIG. 2B): about 10 μg/mL"
"CC(C)=CCC[C@](C)(O)[C@H]1CC[C@]2(C)[C@@H]1[C@H](O)C[C@@H]1[C@@]3(C)CC[C@H](O)C(C)(C)[C@@H]3CC[C@]12C [PPD, protopanaxadiol]",–,–,slightly recovered,increased the level of cytochrome-C release,43,significantly increased,not affected,decreased,increase,relatively excellent anticancer activity,damage was observed,could enhance the anticancer activity of doxorubicin,increased,"formation of cleaved-PARP and cleaved-caspase-9 according to treatment time ([3]; PPD 10 μg/mL with doxorubicin 5 μg/mL, 0-6 hours, versus doxorubicin alone, FIG. 3B): formed more rapidly"
CC/C(=C(\c1ccccc1)c1ccc(OCCN(C)C)cc1)c1ccccc1 [tamoxifen],no difference in anticancer activity,showed anticancer activity,–,–,–,–,–,–,–,–,–,–,–,–
